Test results taken from patent publication US9200008B2 (ASKA PHARMACEUTICAL CO., LTD., priority 2010, dated 2015).

system: Human prostate cancer cell lines (PC-3 cells); assay: Measurement of cell death-inducing activity (Test Example 1); format: cell-based; conditions: PC-3, 48 h, 48 hours after addition, tested at 10, 1, 0.1, 0.025 and 0.00625 μmol/L, qualitative evaluation of 10 fields, read-out: Concentration showing the cell death-inducing activity (cell death-inducing rate not less than 40%)
Outline: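 Compound treatment lasted 48 h at 10 to 0.00625 μmol/L (five levels, DMSO as control) on PC-3 cells pre-cultured 48 h at 37 °C, 5% CO2 after seeding at 1×10^5 cells/well. A cell death-inducing rate of 40% or more counted as active.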

COc1cc(C)ccc1-c1nc(C)c(NC(=O)OCc2ccc3c(c2)nnn3C)s1 [Example 9-16] and COc1cc(C)ccc1-c1nc(C)c(NC(=O)OCc2ccc3c(cnn3C)c2)s1 [Example 9-129] are the same in minimal effective concentration: 0.00625 µM for the first, 0.00625 µM for the second.

First: COCCn1cnc2cc(COC(=O)Nc3cc(-c4ccc(Cl)cc4OC)nn3C)ccc21 [Example 9-273]
Second: COc1cc(Cl)ccc1-c1cc(NC(=O)OCc2ccc3c(c2)ncn3C)n(C)n1 [Example 9-221]
The minimal effective concentration of the first is 1600-fold higher: 10 µM for the first, 0.00625 µM for the second.

Compared with CCn1cnc2cc(COC(=O)Nc3cc(-c4ccc(F)cc4OC)nn3C)ccc21 [Example 9-219], CCn1cnc2cc(COC(=O)Nc3cc(-c4ccc(C)cc4OC)nn3C)ccc21 [Example 9-228] is 4-fold lower in minimal effective concentration: 0.025 µM for the first, 0.00625 µM for the second.

First: Cc1ccc(-c2nc(C)c(C(=O)N/N=C/c3ccc(O)c(C)c3)s2)c(C)c1 [Example 23-45]
Second: Cc1cc(Cl)ccc1-c1nc(C)c(C(=O)N/N=C/c2cc(C)c(O)c(C)c2)s1 [Example 23-123]
The minimal effective concentration of the first is 10-fold higher: 1 µM for the first, 0.1 µM for the second.

Going from CCc1nc(-c2ccc(F)cc2C)sc1NC(=O)OCc1ccc2c(c1)nc1n2CCC1 [Example 9-348] to CCc1cc(F)ccc1-c1nc(C)c(NC(=O)OCc2ccc3c(c2)nc2n3CCC2)s1 [Example 9-102], the minimal effective concentration falls from 0.1 µM to 0.025 µM (4-fold).

Compared with COc1ccc(-c2nc(C)c(C(=O)N/N=C/c3ccc(OC)c(O)c3)s2)cc1 [Example 23-103], COc1ccc(/C=N/NC(=O)c2sc(-c3ccccc3)nc2C)cc1O [Example 23-53] is 100-fold lower in minimal effective concentration: 10 µM for the first, 0.1 µM for the second.

Going from COc1cc(Cl)ccc1-c1nc(C)c(C(=O)N/N=C/c2cccc3c2ccn3C)s1 [Example 23-95] to COc1ccc(/C=N/NC(=O)c2sc(-c3ccc(Cl)cc3)nc2C)c(Cl)c1O [Example 23-61], the minimal effective concentration rises from 0.1 µM to 1 µM (10-fold).

First: COc1ccc(-c2nc(C)c(NC(=O)OCc3ccc4nn(C)cc4c3)s2)c(OC)c1 [Example 9-146]
Second: COc1cc(F)ccc1-c1nc(C)c(NC(=O)OCc2ccc3nn(C)cc3c2)s1 [Example 9-143]
The minimal effective concentration of the first is 4-fold higher: 0.1 µM for the first, 0.025 µM for the second.

Going from CCc1nc(-c2ccc(Cl)cc2)sc1C(=O)N/N=C/c1cc(C)c(O)c(C)c1 [Example 23-106] to Cc1cc(/C=N/NC(=O)c2sc(-c3ccc(Cl)cc3)nc2C(C)(C)C)cc(C)c1O [Example 23-21], the minimal effective concentration rises from 1 µM to 10 µM (10-fold).

Going from Cc1ccc(-c2cc(NC(=O)OCc3ccc4c(c3)ncn4C)n(C)n2)c(C)c1 [Example 9-233] to Cn1nc(-c2ccc(Cl)cc2Cl)cc1NC(=O)OCc1ccc2c(c1)ncn2C [Example 9-207], the minimal effective concentration rises from 0.00625 µM to 0.025 µM (4-fold).

Going from CCn1nc(-c2ccc(Cl)cc2OC)cc1NC(=O)OCc1ccc2c(c1)nc1n2CCCC1 [Example 9-268] to CCn1nc(-c2ccc(Cl)cc2OC)cc1NC(=O)OCc1ccc2c(cnn2C)c1 [Example 9-281], the minimal effective concentration falls from 0.1 µM to 0.025 µM (4-fold).

Cn1nc2c(c1NC(=O)OCc1ccc3c(c1)ncn3C)COc1ccccc1-2 [Example 9-320] and CCn1cnc2cc(COC(=O)Nc3c(C)c(-c4ccc(Cl)cc4OC)nn3C)ccc21 [Example 9-313] are the same in minimal effective concentration: 10 µM for the first, 10 µM for the second.

First: COc1ccccc1-c1cc(C(=O)N/N=C/c2cc(C)c(O)c(C)c2)[nH]n1 [Example 22-6]
Second: O=C(N/N=C/c1ccc(O)c(Cl)c1)c1cc(-c2ccc(Cl)cc2Cl)n[nH]1 [Example 21-13]
The minimal effective concentration of the first is 10-fold lower: 1 µM for the first, 10 µM for the second.

Going from COc1cc(Cl)ccc1-c1cc(C(=O)N/N=C/c2ccc3c(c2)ncn3C)n(C)n1 [Example 21-25] to CCn1nc(-c2ccc(Cl)cc2OC)cc1COC(=O)Nc1ccc2c(c1)ncn2C [Example 13-85], the minimal effective concentration falls from 0.1 µM to 0.00625 µM (16-fold).

Compared with CCc1nc(-c2ccc(F)cc2C)sc1NC(=O)OCc1ccc2c(cnn2CC)c1 [Example 9-361], CCn1nnc2cc(COC(=O)Nc3sc(-c4ccc(F)cc4C)nc3C)ccc21 [Example 9-27] is 4-fold lower in minimal effective concentration: 0.1 µM for the first, 0.025 µM for the second.

Compared with Cc1cc(Cl)ccc1-c1nc(C)c(NC(=O)OCc2ccc3c(c2)nc2n3CCCC2)s1 [Example 9-115], Cc1cc(Cl)ccc1-c1nc(C)c(NC(=O)OCc2ccc3c(c2)nc(C)n3C)s1 [Example 9-81] is 4-fold lower in minimal effective concentration: 0.1 µM for the first, 0.025 µM for the second.

Compared with CCc1nc(-c2ccc(Cl)cc2OC)sc1NC(=O)OCc1ccc2c(c1)nc1n2CCOC1 [Example 9-169], CCc1nc(-c2ccccc2OC)sc1NC(=O)OCc1ccc2c(c1)nc1n2CCC1 [Example 9-347] is 160-fold higher in minimal effective concentration: 0.00625 µM for the first, 1 µM for the second.

Going from Cc1nc(-c2ccc(Cl)cc2)sc1C(=O)N/N=C/c1ccccc1O [Example 23-59] to Cc1nc(-c2ccc(Cl)cc2)sc1C(=O)N/N=C/c1ccc(OC(F)F)c(O)c1 [Example 23-115], the minimal effective concentration falls from 10 µM to 1 µM (10-fold).

Going from COc1ccc(CN(C)NC(=O)c2cc(-c3ccccc3OC)oc2C)cc1 [Example 20-1, 5-(2-Methoxyphenyl)-2-methylfuran-3-carboxylic acid N′-(4-methoxybenzyl)-N′-methyl hydrazide] to COc1ccc(/C=N/NC(=O)c2sc(-c3ccccc3OC)nc2C)cc1F [Example 23-68], the minimal effective concentration falls from 10 µM to 0.1 µM (100-fold).

Compared with CCn1nnc2cc(COC(=O)Nc3sc(-c4ccc(Cl)cc4C)nc3C)ccc21 [Example 9-28], CCn1ncc2cc(NC(=O)OCc3sc(-c4ccc(C)cc4C)nc3C)ccc21 [Example 13-45] is 4-fold higher in minimal effective concentration: 0.025 µM for the first, 0.1 µM for the second.

First: Cc1cc(F)ccc1-c1nc(C)c(NC(=O)OCc2ccc3c(c2)nc2n3CCOC2)s1 [Example 9-97]
Second: Cc1nc(-c2ccc3c(c2)CCO3)sc1NC(=O)OCc1ccc2c(c1)ncn2C [Example 9-50]
The minimal effective concentration of the first is 400-fold lower: 0.025 µM for the first, 10 µM for the second.

Cc1nc(C)c(C(=O)N/N=C/c2cc(C)c(O)c(C)c2)s1 [Example 23-133] and COc1ccc(/C=N/NC(=O)c2sc(C)nc2C)cc1O [Example 23-132] are the same in minimal effective concentration: 10 µM for the first, 10 µM for the second.

Compared with CCn1nc(-c2ccc(Cl)cc2OC)cc1NC(=O)OCc1ccc2nn(C)cc2c1 [Example 9-292], CCn1nc(-c2ccc(C)cc2OC)cc1COC(=O)Nc1ccc2c(c1)ncn2C [Example 13-89] is 4-fold lower in minimal effective concentration: 0.025 µM for the first, 0.00625 µM for the second.

Going from Cc1cc(Cl)ccc1-c1nc(C)c(COC(=O)Nc2ccc3nn(C)cc3c2)s1 [Example 13-50] to CCn1nc(-c2ccc(C)cc2C)cc1COC(=O)Nc1ccc2c(c1)nc1n2CCC1 [Example 13-111], the minimal effective concentration falls from 0.025 µM to 0.00625 µM (4-fold).

COc1ccc(/C=N/N=C(\C)c2sc(-c3ccc(Cl)cc3)nc2C)cc1O [Example 30-2] and COc1ccc(/C=N/NC(=O)c2sc(-c3ccccn3)nc2C)cc1O [Example 23-28] are the same in minimal effective concentration: 1 µM for the first, 1 µM for the second.

COCc1nc2cc(NC(=O)OCc3cc(-c4ccc(C)cc4OC)nn3C)ccc2n1C [Example 13-93] and Cc1nc(-c2sccc2Cl)sc1NC(=O)OCc1ccc2c(c1)ncn2C [Example 9-192] are the same in minimal effective concentration: 1 µM for the first, 1 µM for the second.

First: COc1ccc(/C=N/NC(=O)c2sc(-c3ccc(F)cc3)nc2C)cc1 [Example 23-67]
Second: Cc1cc(/C=N/NC(=O)c2cnc(-c3ccccc3C)s2)ccc1O [Example 23-51]
The minimal effective concentration of the first is 10-fold lower: 1 µM for the first, 10 µM for the second.
